# Assay results as given in patent US20260217693A1, “SRPK1 INHIBITORS AND METHODS OF USE” (ALLIANTHERA (SUZHOU) BIOPHARMACEUTICAL CO., LTD., priority 2023, published 2026).
# Target: SRPK1 (Homo sapiens, UniProt Q96SB4)
# Assay: SRPK1 assay, Method 1 (ADP-Glo luminescence)
# Type: biochemical
# Conditions: Method 1 (no asterisk): substrate Human SRSF1/SF2, 25° C. for 90 min, test compounds 30 μM top, 3-fold, duplicate
# Procedure: The SPRK1 assay was performed as follows:
# Method 1: The assay buffer was prepared. The reference compound was diluted to 10 mM. The test compounds were prepared at a concentration of 30 mM. Fifteen nL of compounds/DMSO were transferred to a multi-well plate. Then, 7.5 ul enzyme SRPK1 was added to each well, the plate was spun down at 1000 rpm and centrifuged for 30 sec. Then, 7.5 ul substrate Human SRSF1/SF2 was added to each well, the plate spun down at 1000 rpm and centrifuged for 30 sec. The plate was then incubated at 25° C. for 90 min. After 90 min, 5 μl of ADP-Glo™ Reagent was added to each well and the plate incubated at room temperature for 60 minutes. Then, 10 μl of Kinase Detection Reagent was added to each well and the plate incubate at room temperature for 60 minutes. The luminescence of each well was recorded on Envision. The test compounds were at 30 μM top, 3-fold, in duplicate, and the final concentration of DMSO was 0.1%.
# All assays were performed using Method 1, except where indicated with an asterisk (*) in the below table, indicating Method 2 was used.
# Chain of SRPK1 (Q96SB4 whole entry): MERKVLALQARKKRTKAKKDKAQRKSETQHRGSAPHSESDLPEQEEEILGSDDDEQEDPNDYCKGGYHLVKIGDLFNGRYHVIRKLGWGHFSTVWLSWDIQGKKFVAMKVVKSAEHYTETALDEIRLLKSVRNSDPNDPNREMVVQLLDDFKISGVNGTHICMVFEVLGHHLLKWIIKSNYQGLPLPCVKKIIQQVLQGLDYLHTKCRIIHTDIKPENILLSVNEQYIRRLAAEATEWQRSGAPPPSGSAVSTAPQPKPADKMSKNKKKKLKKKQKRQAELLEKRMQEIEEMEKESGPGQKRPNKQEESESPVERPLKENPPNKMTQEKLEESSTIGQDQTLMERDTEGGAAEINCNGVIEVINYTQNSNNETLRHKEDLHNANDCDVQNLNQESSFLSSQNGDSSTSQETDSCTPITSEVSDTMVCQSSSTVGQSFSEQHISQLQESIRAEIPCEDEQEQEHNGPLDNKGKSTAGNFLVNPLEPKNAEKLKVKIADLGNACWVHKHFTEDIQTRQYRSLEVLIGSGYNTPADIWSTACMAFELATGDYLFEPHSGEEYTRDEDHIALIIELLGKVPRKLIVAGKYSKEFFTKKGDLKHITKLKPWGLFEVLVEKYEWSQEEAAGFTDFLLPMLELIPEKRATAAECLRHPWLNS
row,SMILES,IC50 [nM]
1,Nc1cc(-c2ccc(C(=O)Nc3cc(C4CC4)cnc3N3CCc4[nH]ncc4C3)o2)ccn1 [Compound 122],> 30000
2,O=C1C=C(c2ccc(C(=O)Nc3cc(C(F)(F)F)cnc3N3CCC(O)CC3)o2)CCO1 [Compound 102],340
3,C[C@@H]1C[C@@H](O)CCN1c1ncc(C2CC2)cc1NC(=O)c1ccc(Br)o1 [Compound 116],> 30000
4,CC1(O)CCCN(c2ncc(C(F)(F)F)cc2NC(=O)c2ccc(C3CCOCC3)o2)CC1 (stereo not shown) [Compound 055],45.1
5,O=C(O)c1ccc(C(=O)Nc2cc(C(F)(F)F)cnc2N2CCC(O)CC2)o1 [Compound 098],871
6,"O=C(Nc1cc(C(F)(F)F)cnc1N1CCC(O)CC1)c1cc(-c2cn[nH]c2)ccn1 [Compound 094, N-[2-(4-hydroxy-1-piperidyl)-5-(trifluoromethyl)-3-pyridyl]-4-(1H-pyrazol-4-yl)pyridine-2-carboxamide]",> 30000
7,O=C(Nc1cc(C(F)(F)F)cnc1C1CCNCC1)c1ccc(C2CCOCC2)o1 [Compound 062],> 30000
8,C[C@@H]1C[C@H](O)CCN1c1ncc(C(F)(F)F)cc1NC(=O)c1ccc(-c2cn[nH]c2)o1 [Compound 110],16.1
9,C[C@@H]1C[C@@H](O)CCN1c1ncc(C(F)(F)F)cc1NC(=O)c1ccc(-c2cn[nH]c2)o1 [Compound 113],> 30000
10,O=C(Nc1cc(C(F)(F)F)cnc1-c1cncnc1)c1ccc(C2CCOCC2)o1 [Compound 013],14700
11,O=C(Nc1cc(C(F)(F)F)cnc1N1CCC(F)(F)CC1)c1ccc(-c2ccncc2)o1 [Compound 070],4640
12,C[C@@H]1C[C@@H](O)CCN1c1ncc(C2CC2)cc1NC(=O)c1ccc(-c2cc(N)nc(N)c2)o1 [Compound 134],> 30000
13,O=C(Nc1cc(C(F)(F)F)cnc1-c1ccncc1)c1ccc(C2CCOCC2)o1 [Compound 010],8240
14,O=C(Nc1cc(C(F)(F)F)cnc1N1CCC(O)CC1)c1ccc(-c2cncnc2)o1 [Compound 063],13500
15,O=C(Nc1cc(Cl)cnc1N1CCC(O)CC1)c1ccc(C2CCOCC2)o1 [Compound 007],252
16,O=C(Nc1cc(C(F)(F)F)cnc1N1CCC(O)CC1)c1cccnc1 [Compound 051],> 30000
17,O=C(Nc1cc(C(F)(F)F)cnc1N1CCC(O)CC1)c1cccc(-c2cn[nH]c2)n1 [Compound 100],59.7
18,O=C(Nc1cc(C(F)(F)F)cnc1N1CCC(O)CC1)c1ccc(-c2ccnc(F)c2)o1 [Compound 016],> 30000
19,O=C(Nc1cc(C(F)(F)F)cnc1-c1cccnc1)c1ccc(C2CCOCC2)o1 [Compound 009],> 30000
20,O=C(Nc1cc(C(F)(F)F)cnc1N1CCC(O)CC1)c1ccn(C2CCOCC2)n1 [Compound 103],136
21,CC1(O)CCCN(c2ncc(C(F)(F)F)cc2NC(=O)C2CCC(C3CCOCC3)O2)CC1 (stereo not shown) [Compound 058],15700
22,O=C(Nc1cc(C2CC2)cnc1N1CCc2[nH]ncc2C1)c1ccc(Br)o1 [Compound 120],> 30000

row,SMILES,IC50 [nM]
1,O=C(Nc1cc(C(F)(F)F)cnc1N1CCC(O)(C(F)(F)F)CC1)c1ccc(-c2ccncc2)o1 [Compound 064],249
2,O=C(Nc1cc(C(F)(F)F)cnc1N1CCC2(CCNC2=O)CC1)c1ccc(C2CCOCC2)o1 [Compound 073],59.3
3,Nc1cc(-c2ccc(C(=O)Nc3cc(C4CC4)cnc3N3CCc4[nH]ncc4C3)o2)cc(N)n1 [Compound 131],> 30000
4,O=C(Nc1cc(C(F)(F)F)cnc1N1CCC(O)CC1)c1ccc(-c2c[nH]cn2)o1 [Compound 104],556
5,"CC1C[C@@H](O)CCN1c1ncc(C(F)(F)F)cc1NC(=O)c1ccc(-c2ccncc2)o1 (stereo in doubt) [Compound 079, N-(2-((2R,4S)-4-hydroxy-2-methylpiperidin-1-yl)-5-(trifluoromethyl)pyridin-3-yl)-5-(pyridin-4-yl) furan-2-carboxamide]",102
6,O=C(Nc1cc(C(F)(F)F)cnc1N1CCOCC1)c1ccc(C2CCOCC2)o1 [Compound 037],> 30000
7,CN(C)C(=O)C1CCN(c2ncc(C(F)(F)F)cc2NC(=O)c2ccc(C3CCOCC3)o2)CC1 [Compound 040],193
8,O=C(Nc1cc(C(F)(F)F)cnc1-c1ccccc1)c1ccc(C2CCOCC2)o1 [Compound 008],> 30000
9,C#Cc1ccc(C(=O)Nc2cc(C(F)(F)F)cnc2N2CCC(O)CC2)o1 [Compound 117],> 30000
10,O=C(Nc1cc(C(F)(F)F)cnc1N1CCC(O)C1)c1ccc(C2CCOCC2)o1 (stereo not shown) [Compound 035],> 30000
11,CC1(O)CCN(c2ncc(C(F)(F)F)cc2NC(=O)c2ccc(-c3ccncc3)o2)CC1 [Compound 026],358
12,O=C(Nc1cc(C(F)(F)F)cnc1N1CCC2(CCOC2=O)CC1)c1ccc(C2CCOCC2)o1 [Compound 082],55.5
13,O=C(Nc1cc(C(F)(F)F)cnc1N1CCC(O)CC1)c1ccc(C2CCOCC2)o1 [Compound 005],41.9
14,C[C@@H]1C[C@H](O)CCN1c1ncc(C(F)(F)F)cc1NC(=O)c1ccc(-c2cc(N)nc(N)c2)o1 [Compound 133],> 30000
15,CC(=O)N1CCN(c2ncc(C(F)(F)F)cc2NC(=O)c2ccc(C3CCOCC3)o2)CC1 [Compound 085],2050
16,Nc1cc(-c2ccc(C(=O)Nc3cc(C(F)(F)F)cnc3N3CCc4[nH]ncc4C3)o2)ccn1 [Compound 124],> 30000
17,CC(=O)OC1CCN(c2ncc(C3CC3)cc2NC(=O)c2ccc(C3CCOCC3)o2)CC1 [Compound 028],105
18,CN1CCN(c2ncc(C(F)(F)F)cc2NC(=O)c2ccc(-c3ccncc3)o2)CC1 [Compound 003],971
19,O=C(Nc1cc(C(F)(F)F)cnc1N1CCCC(O)C1)c1ccc(C2CCOCC2)o1 (stereo not shown) [Compound 072],754
20,O=C(Nc1cc(C(F)(F)F)cnc1N1CCC(O)(C(F)(F)F)CC1)c1ccc(C2CCOCC2)o1 [Compound 069],63.7
21,CN1CCC2(CCN(c3ncc(C(F)(F)F)cc3NC(=O)c3ccc(C4CCOCC4)o3)CC2)C1=O [Compound 030],232
22,C[C@@H]1C[C@@H](O)CCN1c1ncc(C(F)(F)F)cc1NC(=O)c1ccc(-c2ccnc(N)c2)o1 [Compound 114],> 30000

row,SMILES,IC50 [nM]
1,O=C(Nc1cc(C(F)(F)F)cnc1N1CCC(O)CC1)c1ccc(-c2ccnc(O)c2)o1 [Compound 021],13.5
2,"O=C1CC2(CCN(c3ncc(C(F)(F)F)cc3NC(=O)c3ccc(C4CCOCC4)o3)CC2)C1 [Compound 065, N-(2-(2-oxo-7-azaspiro[3.5]nonan-7-yl)-5-(trifluoromethyl)pyridin-3-yl)-5-(tetrahydro-2H-pyran-4-yl) furan-2-carboxamide]",204
3,C[C@@H]1C[C@H](O)CCN1c1ncc(C2CC2)cc1NC(=O)c1ccc(-c2ccnc(N)c2)o1 [Compound 128],> 30000
4,"C[C@@H]1C[C@@H](O)CCN1c1ncc(C(F)(F)F)cc1NC(=O)c1ccc(Br)o1 [Compound 107, 5-bromo-N-[2-[(2R,4S)-4-hydroxy-2-methyl-1-piperidyl]-5-(trifluoromethyl)-3-pyridyl]furan-2-carboxamide]",746
5,C[C@@H]1C[C@H](O)CCN1c1ncc(C(F)(F)F)cc1NC(=O)c1ccc(-c2ccnc(N)c2)o1 [Compound 111],39.4
6,O=C(Nc1cc(C(F)(F)F)cnc1N1CCC(O)CC1)c1ccc(C(F)(F)F)cn1 [Compound 077],> 30000
7,O=C(Nc1cc(C(F)(F)F)cnc1N1CCC(O)CC1)c1ccccn1 [Compound 047],260
8,O=C(Nc1cc(C(F)(F)F)cnc1-c1ccn[nH]1)c1ccc(C2CCOCC2)o1 [Compound 019],217
9,C[C@H]1C[C@@H](O)CCN1c1ncc(C(F)(F)F)cc1NC(=O)c1ccc(C2CCOCC2)o1 [Compound 075],13.1
10,O=C(Nc1cc(C(F)(F)F)cnc1N1CCC(O)CC1)c1ccc(-c2ccnnc2)o1 [Compound 050],435
11,C[C@@H]1C[C@@H](O)CCN1c1ncc(C(F)(F)F)cc1NC(=O)c1ccc(-c2cc(N)nc(N)c2)o1 [Compound 132],> 30000
12,O=C(Nc1cc(C2CC2)cnc1N1CCC(O)CC1)c1ccc(-c2ccnc(F)c2)o1 [Compound 023],55.1
13,C[C@@H]1C[C@@H](O)CCN1c1ncc(C2CC2)cc1NC(=O)c1ccc(-c2ccnc(N)c2)o1 [Compound 119],> 30000
14,O=C(Nc1cc(C(F)(F)F)cnc1N1CCc2n[nH]cc2C1)c1ccc(C2CCOCC2)o1 [Compound 078],27.9
15,O=C(Nc1cc(C(F)(F)F)cnc1N1CCC(O)CC1)c1ccc(C2CCNCC2)o1 [Compound 061],8200
16,C[C@@H]1C[C@H](O)CCN1c1ncc(C(F)(F)F)cc1NC(=O)c1ccc(Br)o1 [Compound 109],746
17,CC(=O)OC1CCN(c2ncc(C(F)(F)F)cc2NC(=O)c2ccc(C(F)(F)F)cn2)CC1 [Compound 068],> 30000
18,O=C(Nc1cc(C(F)(F)F)cnc1N1CCC(O)CC1)c1cc(Cl)ccn1 [Compound 091],> 30000
19,O=C(Nc1cc(C(F)(F)F)cnc1N1CCS(=O)(=O)CC1)c1ccc(C2CCOCC2)o1 [Compound 042],> 30000
20,"CC1C[C@@H](O)CCN1c1ncc(C(F)(F)F)cc1NC(=O)c1ccc(-c2ccncc2)o1 (stereo in doubt) [Compound 080, N-(2-((2S,4S)-4-hydroxy-2-methylpiperidin-1-yl)-5-(trifluoromethyl)pyridin-3-yl)-5-(pyridin-4-yl) furan-2-carboxamide]",344
